Laboratory results published in US20210186947A1, “TOMM6-INTERACTING EXTRACTS AND COMPOUNDS FOR USE IN THE TREATMENT AND PROPHYLAXIS OF NERVOUS SYSTEM DISEASES, ATHEROSCLEROSIS, HEPATITIS B INFECTION AND HUMAN PAPILLOMA VIRUS (HPV) INFECTION” (ETH ZURICH, priority 2018, published 2021).

Experiments:
[1] = Measurement of serum level in rats by HPLC; assay type: in vivo, Sprague Dawley rats
Procedure: (§1) Serum concentrations of alizarin were determined with serum isolated from the blood of male and female German shepherd dogs (age: 8-9 months) taken at different time points (0.5 h, 1 h, 2 h, 4 h, 6 h, 8 h, 24 h) after oral intake of the indicated doses for 4 weeks. In addition, serum concentrations of alizarin (Compound-1) were determined in male and female Sprague Dawley rats (body weight: 200-250 g) treated for 1 month and/or three months by oral gavage of alizarin at a once daily dose of 100 mg/kg, 50 mg/kg, 25 mg/kg and 12.5 mg/kg. Serum proteins were removed by acetonitrile precipitation, and alizarin was extracted by chloroform before separation on an HPLC-C18 column (Poroshell 120 EC-C18, 3.0×50 mm, Agilent) with an HPLC system (Agilent 1100 Series) and detection at OD245 nm. For quantitative determination of Compound-7 and Compound-10F in rat and dog serum, serum proteins were also removed by acetonitrile precipitation before HPLC analysis as detailed above and detection at OD254 nm.

[2] = system: Agtr2 (AT2R); assay: Immunoblot detection of Agtr2 in PBMCs of aged rats subjected to CUMS; assay type: in vivo, rats (Sprague Dawley); conditions: 4 weeks of CUMS, treated during CUMS
[3] = Toxic adverse effects during 3 months of treatment of Tg2576 AD mice; assay type: in vivo; conditions: daily dose of 10 mg/kg
[4] = Measurement of serum level in dogs by HPLC; assay type: in vivo, German shepherd dogs
Procedure: as §1

[5] = system: hyperphosphorylated PHF-Tau; assay: Hippocampal hyperphosphorylated PHF-Tau in Tg2576 mice subjected to CUMS, binding assay with [125I]-labeled AT8 antibody; assay type: in vivo; conditions: 15 months-old Tg2576 mice, 3 months of CUMS, treated during CUMS; compounds 10 mg/kg/d
[6] = system: hippocampal neuronal cell bodies (NeuN); assay: Hippocampal neuronal loss in Tg2576 mice subjected to CUMS, binding assay with [125I]-labeled anti-NeuN antibody; assay type: in vivo; conditions: 15 months-old Tg2576 mice, 3 months of CUMS, treated during CUMS; compounds 10 mg/kg/d
[7] = biological target: T1, Tomm6 (Mus musculus, UniProt Q9CQN3); assay: Immunoblot detection of hippocampal Tomm6 protein in treated Tg2576 mice; assay type: in vivo
T1 construct: hippocampi were isolated from 5-10 aged Tg2576 mice, pulverized under liquid nitrogen and solubilized; from tissue; host or cells: hippocampus of Tg2576 mice
T1 sequence (Q9CQN3 1-74): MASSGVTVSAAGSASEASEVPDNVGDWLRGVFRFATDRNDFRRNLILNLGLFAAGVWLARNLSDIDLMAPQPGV

[8] = system: aggregated Agtr2; assay: ELISA of aggregated Agtr2 protein in PBMC of rats subjected to CUMS; assay type: in vivo, rats (Sprague Dawley); conditions: aged rats, 4 weeks of CUMS, treated during CUMS
Text: More preferably, AGTR2 aggregation is detected with a sandwich ELISA. To this end the following steps can be performed: • (i) The first step of the sandwich ELISA is the immobilization of AGTR2-specific capture antibodies (any species, e.g. rabbit, rat, mouse, cameloid; serum, affinity-enriched; F(ab)2 fragments, nanobodies as generated in step (vi)) on an ELISA plate (Nunc Maxisorb), 0.1-10 microg/well, preferably 1-5 microg, more preferably, 1-2 microg in 100 microL of a suitable buffer (e.g. 0.1 M sodium acetate, 0.1 M NaCl, pH 5.5; or 15.9 mM Na2CO3, 35 mM NaHCO3, pH 9.6) by overnight incubation at 4° C. […] After the incubation time, unbound antibody is removed by washing steps (without Tween 20). • (v) Bound antibody is detected by a substrate reaction, which includes the addition of 50-400 microL, preferably 100-200 microL of substrate buffer (18 microL of 30% H2O2 added to 10.5 ml ABTS solution (22 mg ABTS dissolved in 100 ml of 50 mM sodium citrate, pH 4.0-pH 4.5). Any other substrate (e.g. is also feasible. After an incubation time of 1 min-5 h at 4° C.-37° C., preferably 30 min-1 h, more preferably 30 min at 37° C., optical density is measured at 410 nm, e.g. on a plate reader (Versa Max, Molecular Devices). […]

[9] = system: hyperphosphorylated PHF tau; assay: Hippocampal hyperphosphorylated PHF tau in aged rats subjected to CUMS, immunoblot; assay type: in vivo, rats (Sprague Dawley); conditions: 4 weeks of CUMS, 10 mg/kg/d during CUMS
[10] = mouse, in vivo, po, 100 mg/kg/day
[11] = system: angiotensin II AT2 receptor (AT2R, AGTR2); assay: AT2R protein aggregation assay in HEK cells, immunoblot; assay type: cell-based, human; conditions: 10 microM for 72 h
Procedure: Proteins were also extracted from yeast cells and HEK cells expressing the indicated protein (i.e. HBsAg or AGTR2) as described above. Neuronal cell loss and hyperphosphorylated Tau in hippocampi of 15 months-old Tg2576 mice subjected to the CUMS protocol for 3 months was determined with crude homogenates of dissected hippocampi by direct binding assay with neuron-specific [^125I]-labeled anti-NeuN antibody (MAB377, clone A60, EMD Millipore, Merck KGaA, Darmstadt, Germany) and [^125I]-labeled AT8 antibody similarly as described (AbdAlla et al., J. Biol. Chem. 284, 6554-6565 (2009)).
In the second non-Abeta-based protein aggregation assay, different plant extracts were tested in a mammalian cell system, which analyzed the protein aggregation of the angiotensin II AT2 receptor (AT2R, AGTR2) protein in human embryonic kidney (HEK) cells. The system has physiological relevance because this cellular system is capable to reproduce AT2R protein aggregation, which also occurs in brains of AD patients and AD animal models (AbdAlla et al., J. Biol. Chem. 284, 6554-6565 (2009); AbdAlla et al., J. Biol. Chem. 284, 6566-6574 (2009)). The AT2 receptor in human embryonic kidney (HEK) cells forms stable dimers/oligomers under pro-oxidant conditions, which are resistant to urea-containing reducing SDS-PAGE (FIG. 2A, and AbdAlla et al., J. Biol. Chem. 284, 6566-6574 (2009)). […]

Row | SMILES | oral bioavailability / serum concentrations after oral intake ([1]; rats) | oral doses required to achieve equivalent peak serum concentrations, higher in rats compared to dogs ([1]; rats vs dogs) | time of peak serum concentration ([1]; rats, repeated once daily oral intake of 20 mg/kg/d) [h] | PBMC content of monomeric Agtr2 [2] | accumulation of aggregated Agtr2 in PBMCs [2] | toxic adverse effects [3] | oral bioavailability / serum concentrations after oral intake [4] | hippocampal content of hyperphosphorylated PHF-Tau [5] | hippocampal neuronal loss [6] | hippocampal Tomm6 protein content ([7]; Tg2576 AD mice subjected to the CUMS protocol, treated during CUMS (10 mg/kg/d)) | PBMC content of aggregated Agtr2 protein (ELISA) [8] | hippocampal accumulation of hyperphosphorylated PHF tau [9] | daily food intake / food consumption [10] | aggregation of the AT2 receptor [11] | hippocampal protein content of Tomm6 ([7]; aged Tg2576 mice treated for 6 months)
1 | Cc1nc(CO)cc(-c2ccc(F)cc2)c1C(N)=O [Compound-10F, 4-(4-fluorophenyl)-6-(hydroxymethyl)-2-methyl-pyridine-3-carboxamide] | had oral bioavailability | approximately 10 fold | 1 | significantly higher compared to untreated controls | prevented the accumulation of aggregated Agtr2 | did not show any detectable toxic adverse effects | had oral bioavailability | significantly inhibited the hippocampal accumulation of hyperphosphorylated PHF tau | retarded the CUMS-induced hippocampal neuronal loss | significantly higher | significantly retarded the CUMS-induced accumulation of Agtr2 aggregates | prevented the hippocampal accumulation of hyperphosphorylated PHF tau |  |  | 
2 | O=C(O)c1c(O)c(O)c2c(c1O)C(=O)c1ccccc1C2=O [Compound-2, purpurin-3-carboxylic acid] |  |  |  |  |  |  |  | inhibited hippocampal PHF-Tau hyperphosphorylation | prevented the CUMS-induced hippocampal neuronal loss |  |  |  | did not significantly alter | inhibited the aggregation of the AT2 receptor | substantially increased
